Where two headings read alike, the source gives them in different places.
Experiments:
HIV = experiment: microbe, parasite or virus in culture; format: cell-based; conditions: XTT, 450 nm, * (n) = average of n assays, read-out: Antiviral Activity IC90
Protocol: In addition, the compounds described in the present application may be tested using an antiviral cell culture assay as described in Weislow, O.S., J. of National Cancer Institute, 81(8), pages 577-586 (Apr. 19, 1989) herein incorporated by reference.
This assay compares the viability of HIV-infected cells in a cell culture medium relative to the viability of such cells in the presence of a test compound. The concentration of test compound necessary to inhibit 90% of the virus is then measured using the viability of the cells as an indicator of viral inhibition. This assay is carried out using cell lines that are sensitive to the lyric effects of HIV infection.
Specifically, this assay utilizes the metabolic reduction of a tetrazolium reagent, 2,3-bis[2-methoxy-4-nitro-5-sulfophenyl]-5-[(phenylamino)carbonyl]-2H-tetrazolium hydroxide (XTT). In the presence of a viable cell, the tetrazolium reagent, XTT, is reduced to provide XTT formazan which may be quantified using colorimetric determination (at 450 nm). The intensity of the chromogenic signal is directly proportional to the concentration of the XTT formazan, thus providing a measure of the quantity of viable cells.

HIV-1 Protease = molecular target: T1, HIV-1 Protease (Human immunodeficiency virus type 1 group M subtype B, UniProt P04585); experiment: biochemical; conditions: for IC50: read-out: Fluorescence Assay IC50 (converted); for inhibition at 0.00016 µg/mL: read-out: % inhibition at the stated concentration (ICx (0.16))
T1 construct: HIV-1 Protease
Protocol: These compounds may be assayed using two assays: (1) an enzyme inhibition assay, and (2) an antiviral cell culture assay.
This assay is described in detail in published European Patent Application (EPA) 0 526 009, herein incorporated by reference. Using this assay, a number of the compounds, prepared above, were assayed for HIV protease inhibitory activity.
The assay is unable to test compounds at less than a concentration of 0.16 ng/mL.

[1] = Human immunodeficiency virus 1, concentration inhibiting 90% of the viral-induced toxicity
[2] = concentration inhibiting 50% of the enzyme, * = calculated average with n number of assays
[3] = at 0.16 ng/mL, lowest testable concentration
[4] = concentration inhibiting 90% of the viral-induced toxicity

IC50 (HIV-1 Protease)	Compound	IC90 (HIV; [1])	other results
	CC(C)[C@@H]1SCC[C@@H]1OC(=O)N[C@@H](CSc1ccccc1)[C@H](O)CN1C[C@H]2CCS[C@H]2C[C@H]1C(=O)NC(C)(C)C [9B-23 mg sample]	0.604 µM	IC50 (HIV-1 Protease; [2]): 0.00262 µM
	CC(C)[C@H]1SCC[C@H]1OC(=O)N[C@@H](CSc1ccccc1)[C@H](O)CN1C[C@H]2CCS[C@H]2C[C@H]1C(=O)NC(C)(C)C [9B-24 mg sample]	0.078 µM	inhibition at 0.00016 µg/mL (HIV-1 Protease; [3]): 53%
	CC(C)(C)NC(=O)[C@@H]1C[C@@H]2SCC[C@@H]2CN1C[C@@H](O)[C@H](CSc1ccccc1)NC(=O)O[C@H]1CCS(=O)(=O)C1 [11C-6 mg sample]	0.029 µM	IC50 (HIV-1 Protease; [2]): 0.002 µM
	CC(C)(C)NC(=O)[C@@H]1C[C@@H]2SCC[C@@H]2CN1C[C@@H](O)[C@H](CSc1ccccc1)NC(=O)O[C@@H]1CCS(=O)(=O)C1 [11C-11 mg sample]	0.026 µM	IC50 (HIV-1 Protease; [2]): 0.00152 µM
0.00272 µM	C[C@H]1OCC[C@H]1OC(=O)N[C@@H](CSc1ccccc1)[C@H](O)CN1C[C@H]2CCS[C@H]2C[C@H]1C(=O)NC(C)(C)C [13B-17 mg sample]	0.88 µM	
	C[C@@H]1OCC[C@@H]1OC(=O)N[C@@H](CSc1ccccc1)[C@H](O)CN1C[C@H]2CCS[C@H]2C[C@H]1C(=O)NC(C)(C)C [13B-26 mg sample]	0.09 µM	inhibition at 0.00016 µg/mL (HIV-1 Protease): 71%
	C[C@@H]1[C@H](OC(=O)N[C@@H](CSc2ccccc2)[C@H](O)CN2C[C@H]3CCS[C@H]3C[C@H]2C(=O)NC(C)(C)C)CCS1(=O)=O [31D-Fraction A]		IC90 (HIV; [4]): 0.0303 µM
	C[C@H]1[C@@H](OC(=O)N[C@@H](CSc2ccccc2)[C@H](O)CN2C[C@H]3CCS[C@H]3C[C@H]2C(=O)NC(C)(C)C)CCS1(=O)=O [31D-Fraction B]		IC90 (HIV; [4]): 0.0314 µM
0.00728 µM	C[C@@H]1[C@@H](OC(=O)N[C@@H](CSc2ccccc2)[C@H](O)CN2C[C@H]3CCS[C@H]3C[C@H]2C(=O)NC(C)(C)C)CCS1(=O)=O [34-Fraction A]	0.0452 µM	
0.0274 µM	C[C@H]1[C@H](OC(=O)N[C@@H](CSc2ccccc2)[C@H](O)CN2C[C@H]3CCS[C@H]3C[C@H]2C(=O)NC(C)(C)C)CCS1(=O)=O [34-Fraction B]	0.0321 µM	
	CC(C)(C)NC(=O)[C@@H]1C[C@@H]2SCC[C@@H]2CN1C[C@@H](O)[C@H](CSc1ccccc1)NC(=O)C[C@@H]1CCS(=O)(=O)C1 [Example 12, N-t-Butyl-octahydro-5[2R-hydroxy-3R-N(1',1'-dioxo-tetrahydrothiophen-3'R-ylmethylcarbonyl)amino-4-phenylthio-butyl]-(3aR,7aS)-thieno[3,2-c] pyridine-(6S)-carboxamide]		IC90 (HIV; [4]): 0.096 µM; Fluorescence Assay IC50 (HIV-1 Protease; [2]): 0.44 ng/mL
	CC(C)(C)NC(=O)[C@@H]1C[C@@H]2SCC[C@@H]2CN1C[C@@H](O)[C@H](CSc1ccccc1)NC(=O)[C@H](CC(N)=O)NC(=O)c1ccc2ccccc2n1 [Example 14C]	0.028 µM	
	CC(=O)N[C@H](CCS(C)(=O)=O)C(=O)N[C@@H](CSc1ccccc1)[C@H](O)CN1C[C@H]2CCS[C@H]2C[C@H]1C(=O)NC(C)(C)C [Example 15B, N-t-Butyl-octahydro-5[2R-hydroxy-3R-phenylthiomethyl-4-aza-5-oxo-6R-N(acetyl)amino-8-methylsulfonyl-octyl]-(3aR,7aS)-thieno[3,2-c]pyridine-(6S)-carboxamide]	7.63 µM	IC50 (HIV-1 Protease; [2]): 0.0135 µM
	CC(C)(C)NC(=O)[C@@H]1C[C@@H]2SCC[C@@H]2CN1C[C@@H](O)[C@H](Cc1ccccc1)NC(=O)[C@@H](CS(=O)(=O)c1ccc2ccccc2c1)NS(C)(=O)=O [Example 17B, N-t-Butyl-octahydro-5[2R-hydroxy-3S-phenylmethyl-4-aza-5-oxo-6S-N(methylsulfonyl)amino-7-naphth-2-ylsulfonyl-heptyl]-(3aR,7aS)-thieno[3,2-c]pyridine-(6S)-carboxamide]	0.078 µM	inhibition at 0.00016 µg/mL (HIV-1 Protease; [3]): 60%
	CC(C)(C)NC(=O)[C@@H]1C[C@@H]2SCC[C@@H]2CN1C[C@@H](O)[C@H](Cc1ccccc1)NC(=O)[C@@H](CS(=O)(=O)c1ccc2ccccc2c1)NC(=O)C(F)(F)F [Example 17C, N-t-Butyl-octahydro-5[2R-hydroxy-3S-phenylmethyl-4-aza-5-oxo-6S-N(trifluoromethylcarbonyl)amino-7-naphth-2-ylsulfonyl-heptyl]-(3aR,7aS)-thieno[3,2-c]pyridine-(6S)-carboxamide]	0.031 µM	inhibition at 0.00016 µg/mL (HIV-1 Protease; [3]): 76%
	CC(C)(C)NC(=O)[C@@H]1C[C@@H]2SCC[C@@H]2CN1C[C@@H](O)[C@H](Cc1ccccc1)NC(=O)[C@@H](CS(=O)(=O)c1ccc(F)cc1)NS(C)(=O)=O [Example 19B, N-t-Butyl-octahydro-5[2R-hydroxy-3S-phenylmethyl-4-aza-5-oxo-6S-N(methylsulfonyl)amino-7-p-fluorophenylsulfonyl-heptyl]-(3aR,7aS)-thieno[3,2-c]pyridine-(6S)-carboxamide]	0.233 µM	IC50 (HIV-1 Protease; [2]): 0.000224 µM
	CC(=O)N[C@H](CS(=O)(=O)c1ccc(F)cc1)C(=O)N[C@@H](CSc1ccccc1)[C@H](O)CN1C[C@H]2CCS[C@H]2C[C@H]1C(=O)NC(C)(C)C [Example 21B, N-t-Butyl-octahydro-5[2R-hydroxy-3R-phenylthiomethyl-4-aza-5oxo-6S-N(acetyl)amino-7-p-fluorophenylsulfonyl-heptyl]-(3aR,7aS)-thieno[3,2-c]pyridine-(6S)-carboxamide]	0.078 µM	IC50 (HIV-1 Protease; [2]): 0.00183 µM
	CC(C)(C)NC(=O)[C@@H]1C[C@@H]2SCC[C@@H]2CN1C[C@@H](O)[C@H](Cc1ccccc1)NC(=O)[C@@H](CS(=O)(=O)c1cccc2cccnc12)NC(=O)C(F)(F)F [Example 24B, N-t-Butyl-octahydro-5[2R-hydroxy-3S-phenylmethyl-4-aza-5-oxo-6S-N(trifluoromethylcarbonyl)amino-7-quinolin-8-ylsulfonyl-heptyl]-(3aR,7aS)-thieno[3,2-c]pyridine-(6S)-carboxamide]	0.0818 µM	
0.000239 µM	CC(=O)N[C@H](CS(=O)(=O)c1cccc2cccnc12)C(=O)N[C@@H](Cc1ccccc1)[C@H](O)CN1C[C@H]2CCS[C@H]2C[C@H]1C(=O)NC(C)(C)C [Example 25, N-t-Butyl-octahydro-5[2R-hydroxy-3S-phenylmethyl-4-aza-5-oxo-6S-N(acetyl)amino-7-quinolin-8-ylsulfonyl-heptyl]-(3aR,7aS)-thieno[3,2-c]pyridine-(6S)-carboxamide]	0.279 µM	
0.000389 µM	CC(C)(C)NC(=O)[C@@H]1C[C@@H]2SCC[C@@H]2CN1C[C@@H](O)[C@H](Cc1ccccc1)NC(=O)[C@@H](CS(=O)(=O)c1cccc2cccnc12)NS(C)(=O)=O [Example 26, N-t-Butyl-octahydro-5[2R-hydroxy-3S-phenylmethyl-4-aza-5-oxo-6S-N(methylsulfonyl)amino-7-quinolin-8-ylsulfonyl-heptyl]-(3aR,7aS)-thieno[3,2-c]pyridine-(6S)-carboxamide]	0.225 µM	
	CC(C)[C@@H]1[C@H](OC(=O)N[C@@H](CSc2ccccc2)[C@H](O)CN2C[C@H]3CCS[C@H]3C[C@H]2C(=O)NC(C)(C)C)CCS1(=O)=O [Example 40D, N-t-Butyl-octahydro-5[2R-hydroxy-3R-N(1',1'-dioxo-2'R-isopropyl-tetrahydrothiophen-3'R-yloxycarbonyl)amino-4-phenylthio-)-butyl]-(3aR,7aS)-thieno[3,2-c] pyridine-(6S)-carboxamide methanesulfonate]	0.0071 µM	

Compound	IC50 (HIV-1 Protease)	IC90 (HIV; [1])	other results
CC(C)[C@H]1[C@@H](OC(=O)N[C@@H](CSc2ccccc2)[C@H](O)CN2C[C@H]3CCS[C@H]3C[C@H]2C(=O)NC(C)(C)C)CCS1(=O)=O [10B-51 mg sample]	0.00095 µM	0.077 µM	
CC(C)[C@@H]1[C@H](OC(=O)N[C@@H](CSc2ccccc2)[C@H](O)CN2C[C@H]3CCS[C@H]3C[C@H]2C(=O)NC(C)(C)C)CCS1(=O)=O [10B-52 mg sample]	0.000421 µM	0.009 µM	
CC(C)(C)NC(=O)[C@@H]1C[C@@H]2SCC[C@@H]2CN1C[C@@H](O)[C@H](Cc1ccccc1)NC(=O)[C@@H](CS(=O)(=O)c1ccc(F)cc1)NC(=O)C(F)(F)F [Example 19C, N-t-Butyl-octahydro-5[2R-hydroxy-3S-phenylmethyl-4-aza-5-oxo-6S-N(trifluoromethylcarbonyl)amino-7-p-fluorophenylsulfonyl-heptyl]-(3aR,7aS)-thieno[3,2-c]pyridine-(6S)-carboxamide]	0.00116 µM	0.052 µM	inhibition at 0.00016 µg/mL (HIV-1 Protease): 85%
CC(=O)N[C@H](CS(=O)(=O)c1ccc2ccccc2c1)C(=O)N[C@@H](Cc1ccccc1)[C@H](O)CN1C[C@H]2CCS[C@H]2C[C@H]1C(=O)NC(C)(C)C [Example 28]	0.00267 µM	0.0218 µM	
